# Measured values: patent US20240018122A1, “PYRIDAZINYL AMINO DERIVATIVES AS ALK5 INHIBITORS” (CHIESI FARMACEUTICI S.P.A., priority 2020, published 2024)
# pIC50: −log10 of the molar value.
# Biological target: human ALK5 (Homo sapiens (Human), UniProt P36897)
# Assay: ADP-GLO Kinases assay, inhibitory activity on ALK5
# Assay type: biochemical
# Settings: not given
# Chain of human ALK5 (P36897 80-503 limits assumed): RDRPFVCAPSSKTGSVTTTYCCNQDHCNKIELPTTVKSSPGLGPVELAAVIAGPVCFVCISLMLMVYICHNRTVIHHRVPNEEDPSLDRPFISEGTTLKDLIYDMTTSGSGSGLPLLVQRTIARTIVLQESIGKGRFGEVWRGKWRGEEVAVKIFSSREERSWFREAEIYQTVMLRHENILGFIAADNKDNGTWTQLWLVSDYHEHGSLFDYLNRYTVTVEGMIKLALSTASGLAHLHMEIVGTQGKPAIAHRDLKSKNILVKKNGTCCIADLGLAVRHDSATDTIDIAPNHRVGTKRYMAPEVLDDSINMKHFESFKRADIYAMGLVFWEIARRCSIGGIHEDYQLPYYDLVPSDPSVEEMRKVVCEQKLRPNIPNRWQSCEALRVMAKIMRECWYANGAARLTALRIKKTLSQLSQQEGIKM
row,Molecule,pIC50
1,"CN1CC2(CCN(C(=O)Oc3ccc4c(Nc5cnnc(-c6cc(Cl)ccc6F)c5)ccnc4c3)C2)C1 [Example 119, 4-{[6-(5-Chloro-2-Fluorophenyl)Pyridazin-4-Yl]Amino}Quinolin-7-Yl 2-Methyl-2,6-Diazaspiro[3.4]Octane-6-Carboxylate]",8.30 to 9.00
2,"CN1CCN(CCC2CCN(C(=O)Oc3ccc4c(Nc5cnnc(-c6cc(Cl)ccc6F)c5)ccnc4c3)CC2)CC1 [Example 70, 4-{[6-(5-Chloro-2-Fluorophenyl)Pyridazin-4-Yl]Amino}Quinolin-7-Yl 4-[2-(4-Methylpiperazin-1-Yl)Ethyl]Piperidine-1-Carboxylate]",8.30 to 9.00

# Same assay, conditions: purified recombinant human ALK5 2.6 nM, TGFβ1 peptide substrate, 25° C, 150 min incubation, ADP-Glo detection; read-out: ALK5 IC50
row,Molecule,pIC50
1,"COC(=O)CC1CN(CCC(=O)Nc2cc(Nc3cc(-c4cc(Cl)ccc4F)nnc3C)ccn2)CCN1 (stereo not drawn) [Example 97, Methyl 2-(4-{2-[(4-{[6-(5-Chloro-2-Fluorophenyl)-3-Methylpyridazin-4-Yl]Amino}Pyridin-2-Yl)Carbamoyl]Ethyl}Piperazin-2-Yl)Acetate]",> 9.00
2,"Nc1nccc(Nc2cnnc(-c3cc(Cl)ccc3F)c2)n1 [Example C2, N4-[6-(5-chloro-2-fluorophenyl)pyridazin-4-yl]pyrimidine-2,4-diamine, reference compound]",6.32
3,1-(4-{[6-(2-Chloro-5-Fluorophenyl)-3-Methylpyridazin-4-Yl]Amino}Pyridin-2-Yl)-3-[(1-Methylpiperidin-4-Yl)Methyl]Urea [Example 142],> 9.00
4,"CCOC1(CO)CN(CCC(=O)Nc2cc(Nc3cc(-c4cc(Cl)ccc4F)nnc3C)ccn2)C1 [Example 79, N-(4-{[6-(5-chloro-2-fluorophenyl)-3-methylpyridazin-4-yl]amino}pyridin-2-yl)-3-[3-ethoxy-3-(hydroxymethyl)azetidin-1-yl]propanamide]",> 9.00
5,O=C(CCN1CCCN(CC(F)(F)F)C1)Nc1cc(Nc2cnnc(-c3cc(Cl)ccc3F)c2)ccn1 [Example 59],8.30 to 9.00
6,"CN(CCOc1ccc2c(Nc3cnnc(-c4cc(Cl)ccc4F)c3)ccnc2c1)C1COC1 [Example 42, N-[6-(5-Chloro-2-Fluorophenyl)Pyridazin-4-Yl]-7-{2-[Methyl(Oxetan-3-Yl)Amino]Ethoxy}Quinolin-4-Amine]",> 9.00
7,"Cc1nnc(-c2cc(Cl)ccc2F)cc1Nc1ccnc(NC(=O)C2CCN(C)CC2)c1 [Example 88, N-(4-{[6-(5-Chloro-2-Fluorophenyl)-3-Methylpyridazin-4-Yl]Amino}Pyridin-2-Yl)-1-Methylpiperidine-4-Carboxamide]",8.30 to 9.00
8,"O=C(Oc1ccc2c(Nc3cnnc(-c4cc(Cl)ccc4F)c3)ccnc2c1)N1CCC(N2CCC2)CC1 [Example 134, 4-{[6-(5-Chloro-2-Fluorophenyl)Pyridazin-4-Yl]Amino}Quinolin-7-Yl 4-(Azetidin-1-Yl)Piperidine-1-Carboxylate]",> 9.00
9,"Cc1nnc(-c2cc(Cl)ccc2F)cc1Nc1ccnc(NC(=O)CCN2CCN(CCN)CC2)c1 [Example 76, 3-[4-(2-Aminoethyl)Piperazin-1-Yl]-N-(4-{[6-(5-Chloro-2-Fluorophenyl)-3-Methylpyridazin-4-Yl]Amino}Pyridin-2-Yl)Propanamide]",> 9.00
10,"COC(=O)c1cc2c(Nc3cnnc(-c4cc(Cl)ccc4F)c3)ccnc2cc1OCCN1CCN(C)CC1 [Example 171, Methyl 4-{[6-(5-Chloro-2-Fluorophenyl)Pyridazin-4-Yl]Amino}-7-[2-(4-Methylpiperazin-1-Yl)Ethoxy]Quinoline-6-Carboxylate]",> 9.00
11,"COC(=O)CCCc1nnc(-c2cc(Cl)ccc2F)cc1Nc1ccnc(NC(=O)CCN2CCN(C)CC2)c1 [Example 191, Methyl 4-(6-(5-Chloro-2-Fluorophenyl)-4-((2-(3-(4-Methylpiperazin-1-Yl)Propanamido)Pyridin-4-Yl)Amino)Pyridazin-3-Yl)]",> 9.00
12,"Cc1nnc(-c2cc(Cl)ccc2F)cc1Nc1ccnc(NC(=O)CCN2CCN(C)C(C(=O)OC3COC3)C2)c1 (stereo not drawn) [Example 129, oxetan-3-yl 4-{2-[(4-{[6-(5-chloro-2-fluorophenyl)-3-methylpyridazin-4-yl]amino}pyridin-2-yl)carbamoyl]ethyl}-1-methylpiperazine-2-carboxylate]",> 9.00
13,"Fc1ccc(Cl)cc1-c1cc(Nc2nc3cccnc3[nH]2)cnn1 [Example C1, 6-(5-chloro-2-fluorophenyl)-N-{3H-imidazo[4,5-b]pyridin-2-yl}pyridazin-4-amine, reference compound]",5.20
14,"CN1CC2CC1CN2C(=O)Oc1ccc2c(Nc3cnnc(-c4cc(Cl)ccc4F)c3)ccnc2c1 (stereo not drawn) [Example 137, 4-{[6-(5-Chloro-2-Fluorophenyl)Pyridazin-4-Yl]Amino}Quinolin-7-Yl 5-Methyl-2,5-Diazabicyclo[2.2.1]Heptane-2-Carboxylate]",> 9.00
15,"COC(=O)CCN1CCN(CCOc2ccc3c(Nc4cnnc(-c5cc(Cl)ccc5F)c4)ccnc3c2)CC1 [Example 60, Methyl 3-(4-{2-[(4-{[6-(5-Chloro-2-Fluorophenyl)Pyridazin-4-Yl]Amino}Quinolin-7-Yl)Oxy]Ethyl}Piperazin-1-Yl)Propanoate]",> 9.00
16,"Cc1nnc(-c2cc(Cl)ccc2F)cc1Nc1ccnc(NC(=O)CN2CCN(CCN)CC2)c1 [Example 108, 2-[4-(2-Aminoethyl)Piperazin-1-Yl]-N-(4-{[6-(5-Chloro-2-Fluorophenyl)-3-Methylpyridazin-4-Yl]Amino}Pyridin-2-Yl)Acetamide]",> 9.00
17,CN1CCN(CCC(=O)Nc2cc(Nc3cc(-c4cc(Cl)ccc4F)nnc3C3CC3)ccn2)CC1 [Example 173],> 9.00
18,"Cc1nnc(-c2cc(Cl)ccc2F)cc1Nc1ccnc(NC(=O)CCN2CCN(C)C(C(=O)OC(C)C)C2)c1 (stereo not drawn) [Example 126, Propan-2-Yl 4-{2-[(4-{[6-(5-Chloro-2-Fluorophenyl)-3-Methylpyridazin-4-Yl]Amino}Pyridin-2-Yl)Carbamoyl]Ethyl}-1-Methylpiperazine-2-Carboxylate]",> 9.00
19,"CN1CCC2(CC1)CCN(C(=O)Oc1ccc3c(Nc4cnnc(-c5cc(Cl)ccc5F)c4)ccnc3c1)C2 [Example 118, 4-{[6-(5-Chloro-2-Fluorophenyl)Pyridazin-4-Yl]Amino}Quinolin-7-Yl 8-Methyl-2,8-Diazaspiro[4.5]Decane-2-Carboxylate]",> 9.00
20,"CN1CCC(CCNC(=O)c2cc3c(Nc4cnnc(-c5cc(Cl)ccc5F)c4)ccnc3[nH]2)CC1 [Example 27, 4-{[6-(5-Chloro-2-Fluorophenyl)Pyridazin-4-Yl]Amino}-N-[2-(1-Methylpiperidin-4-Yl)Ethyl]-1H-Pyrrolo[2,3-b]Pyridine-2-Carboxamide]",> 9.00
21,"COC(=O)C1CN(CCC(=O)Nc2cc(Nc3cc(-c4cc(Cl)ccc4F)nnc3C)ccn2)CCN1C (stereo not drawn) [Example 94, Methyl 4-{2-[(4-{[6-(5-Chloro-2-Fluorophenyl)-3-Methylpyridazin-4-Yl]Amino}Pyridin-2-Yl)Carbamoyl]Ethyl}-1-Methylpiperazine-2-Carboxylate]",> 9.00
22,"O=C(CCN1CCN(CCO)CC1)Nc1cc(Nc2cc(-c3cc(Cl)ccc3F)nnc2C(F)(F)F)ccn1 [Example 184, N-(4-{[6-(5-Chloro-2-Fluorophenyl)-3-(Trifluoromethyl)Pyridazin-4-Yl]Amino}Pyridin-2-Yl)-3-[4-(2-Hydroxyethyl)Piperazin-1-Yl]Propenamide]",> 9.00
